Calls of active or inactive are those of the source. No cut-off for these calls is given here.
What was measured:
[1] = Antimigratory activity against EGF induced chemotaxis in human MDA-MB-231 cells preincubated for 24 hrs followed by EGF addition for 3.5 hrs by light microscopy; assay type: functional, cell-based
MDA-MB-231 [2] = assay: Antiinvasive activity in human MDA-MB-231 cells after 24 hrs by transwell migration assay; assay type: functional, cell-based
MDA-MB-231 [3] = assay: Antimigratory activity in human MDA-MB-231 cells after 24 hrs by wound healing assay; assay type: functional, cell-based
MDA-MB-231 [4] = assay: Antimigratory activity in human MDA-MB-231 cells assessed as decrease in cell adhesion to fibronectin at 1 to 40 uM after 24 hrs by MTT assay; assay type: functional, cell-based
MDA-MB-231 [5] = assay: Inhibition of PI3K-p85 phosphorylation in human MDA-MB-231 cells by Western blot analysis; assay type: cell-based
MDA-MB-231 [6] = assay: Inhibition of PI3K-p85 in human MDA-MB-231 cells assessed as reduction in Akt phosphorylation by Western blot analysis; assay type: cell-based
[7] = target: Integrin beta-1 (Homo sapiens) (UniProt P05556); assay: Inhibition of integrin-beta1 phosphorylation in human MDA-MB-231 cells by Western blot analysis; assay type: cell-based
[8] = Effect on integrin-beta1 protein expression in human MDA-MB-231 cells at 5 to 45 uM by Western blot analysis; assay type: ADME, cell-based; details: mda-mb-231, 45 µM
MDA-MB-231 [9] = assay: Inhibition of PI3K-p85 in human MDA-MB-231 cells assessed as reduction in PKCzeta phosphorylation by Western blot analysis; assay type: cell-based
[10] = Effect on PKCzeta protein expression in human MDA-MB-231 cells at 0.25 to 6.75 uM by Western blot analysis; assay type: ADME, cell-based; details: mda-mb-231, 6.75 µM
MDA-MB-231 [11] = assay: Antimigratory activity in human MDA-MB-231 cells assessed as decrease in cell adhesion at 0.25 uM after 24 hrs by MTT assay; assay type: functional, cell-based
[12] = Antimigratory activity in human HepG2 cells at 4.5 uM after 24 hrs by wound healing assay; assay type: functional
[13] = Anti-invasive activity in human HepG2 cells at 4.5 uM after 24 hrs by MTT dye based boyden chamber assay; assay type: functional
[14] = Homo sapiens, MDA-MB-231, read-out: IC50

Chain of Integrin beta-1 (Homo sapiens) (P05556 whole entry): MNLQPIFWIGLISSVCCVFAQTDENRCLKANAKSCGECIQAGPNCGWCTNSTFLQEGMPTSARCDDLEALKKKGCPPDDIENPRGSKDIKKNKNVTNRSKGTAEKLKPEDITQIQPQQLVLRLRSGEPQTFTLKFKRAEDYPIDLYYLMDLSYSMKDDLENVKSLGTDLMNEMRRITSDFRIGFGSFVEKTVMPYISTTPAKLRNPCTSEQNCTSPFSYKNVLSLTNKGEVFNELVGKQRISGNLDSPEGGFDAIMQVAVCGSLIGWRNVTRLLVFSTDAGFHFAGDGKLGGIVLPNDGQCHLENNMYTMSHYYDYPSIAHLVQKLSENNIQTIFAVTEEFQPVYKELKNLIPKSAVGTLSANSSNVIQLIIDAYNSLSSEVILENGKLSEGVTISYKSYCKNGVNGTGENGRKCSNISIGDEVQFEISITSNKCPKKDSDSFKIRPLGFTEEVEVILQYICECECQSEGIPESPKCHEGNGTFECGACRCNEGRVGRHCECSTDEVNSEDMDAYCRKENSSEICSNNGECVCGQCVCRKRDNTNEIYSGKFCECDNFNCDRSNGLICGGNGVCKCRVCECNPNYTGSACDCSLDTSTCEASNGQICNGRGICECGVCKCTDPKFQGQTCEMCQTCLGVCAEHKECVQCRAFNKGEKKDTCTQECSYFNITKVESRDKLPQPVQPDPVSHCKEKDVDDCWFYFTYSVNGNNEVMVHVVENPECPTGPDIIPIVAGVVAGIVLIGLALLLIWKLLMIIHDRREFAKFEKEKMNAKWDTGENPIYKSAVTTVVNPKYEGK

Compound	IC50 [1, 14] [µM]	also measured
C/C=C1/CC[C@H]2[C@@H]3CCC4C[C@@H](NC(=O)c5ccc(C#N)cc5)CC[C@]4(C)[C@H]3CC[C@]12C (stereo partly specified)	0.24	–
C/C=C1/[C@H](O)C[C@H]2[C@@H]3CCC4C[C@@H](N5CCCCC5)CC[C@]4(C)[C@H]3CC[C@]12C (stereo partly specified)	21.4	–
C/C=C1/C(=O)C[C@H]2[C@@H]3CCC4C[C@H](N5CCCCC5)CC[C@]4(C)[C@H]3CC[C@]12C (stereo partly specified)	0.03	Activity (MDA-MB-231 [2]): Dose-dependent effect; Activity (MDA-MB-231 [3]): Dose-dependent effect; Activity (MDA-MB-231 [4]): Active; inhibition (MDA-MB-231 [5]): Dose-dependent effect; inhibition (MDA-MB-231 [6]): Dose-dependent effect; inhibition [7]: Dose-dependent effect; Activity [8]: Non-Toxic; inhibition (MDA-MB-231 [9]): Dose-dependent effect; Activity [10]: Non-Toxic
C/C=C1/C(=O)C[C@H]2[C@@H]3CCC4C[C@@H](NCc5ccc(C#N)cc5)CC[C@]4(C)[C@H]3CC[C@]12C (stereo partly specified)	0.84	–
C/C=C1/C(=O)C[C@H]2[C@@H]3CCC4C[C@@H](N(C)C)CC[C@]4(C)[C@H]3CC[C@]12C (stereo partly specified)	2.14	–
C/C=C1/[C@H](O)C[C@H]2[C@@H]3CCC4C[C@H](N5CCCC5)CC[C@]4(C)[C@H]3CC[C@]12C (stereo partly specified)	0.26	–
C/C=C1/[C@H](O)C[C@H]2[C@@H]3CCC4C[C@H](N)CC[C@]4(C)[C@H]3CC[C@]12C (stereo partly specified)	1.08	–
C/C=C1/CC[C@H]2[C@@H]3CCC4C[C@@H](N)CC[C@]4(C)[C@H]3CC[C@]12C (stereo partly specified)	0.09	–
C/C=C1/CC[C@H]2[C@@H]3CCC4C[C@H](N(C)C)CC[C@]4(C)[C@H]3CC[C@]12C (stereo partly specified)	7.45	–
CC=C1CC[C@H]2[C@@H]3CCC4C[C@H](NC)CC[C@]4(C)[C@H]3CC[C@]12C (stereo partly specified)	> 50	–
C/C=C1/CC[C@H]2[C@@H]3CCC4C[C@H](NCC)CC[C@]4(C)[C@H]3CC[C@]12C (stereo partly specified)	20.2	–
O=c1cc(N2CCOCC2)oc2c(-c3ccccc3)cccc12 [LY-294002]	0.38	–
C/C=C1/[C@H](O)C[C@H]2[C@@H]3CCC4C[C@H](NCc5ccc(C#N)cc5)CC[C@]4(C)[C@H]3CC[C@]12C (stereo partly specified)	–	IC50 ([1]; mda-mb-231): Nd(Toxic)
C/C=C1/C(=O)C[C@H]2[C@@H]3CCC4C[C@@H](N5CCCC5)CC[C@]4(C)[C@H]3CC[C@]12C (stereo partly specified)	–	IC50 ([1]; mda-mb-231): Nd(Toxic)
C/C=C1/C(=O)C[C@H]2[C@@H]3CCC4C[C@H](NCc5ccc(C#N)cc5)CC[C@]4(C)[C@H]3CC[C@]12C (stereo partly specified)	2.34	–
C/C=C1/CC[C@H]2[C@@H]3CCC4C[C@@H](N(C)C)CC[C@]4(C)[C@H]3CC[C@]12C (stereo partly specified)	5.51	–
C/C=C1/C(=O)C[C@H]2[C@@H]3CCC4C[C@@H](N)CC[C@]4(C)[C@H]3CC[C@]12C (stereo partly specified)	0.48	–
C/C=C1/C(=O)C[C@H]2[C@@H]3CCC4C[C@H](NC)CC[C@]4(C)[C@H]3CC[C@]12C (stereo partly specified)	–	IC50 ([1]; mda-mb-231): Nd(Toxic)
FC(F)c1nc2ccccc2n1-c1nc(N2CCOCC2)nc(N2CCOCC2)n1	–	Activity (MDA-MB-231 [11]): Active
C/C=C1/C(=O)C[C@H]2[C@@H]3CCC4C[C@H](N(C)C)CC[C@]4(C)[C@H]3CC[C@]12C (stereo partly specified)	7.37	–
C/C=C1/[C@H](O)C[C@H]2[C@@H]3CCC4C[C@H](NC)CC[C@]4(C)[C@H]3CC[C@]12C (stereo partly specified)	–	IC50 ([1]; mda-mb-231): Nd(Toxic)
C/C=C1/C(=O)C[C@H]2[C@@H]3CCC4C[C@H](N)CC[C@]4(C)[C@H]3CC[C@]12C (stereo partly specified)	0.3	–
C/C=C1/[C@H](O)C[C@H]2[C@@H]3CCC4C[C@@H](NCc5ccc(C#N)cc5)CC[C@]4(C)[C@H]3CC[C@]12C (stereo partly specified)	15.9	–

Compound	IC50 [1, 14] [µM]	also measured
C/C=C1/CC[C@H]2[C@@H]3CCC4C[C@@H](N5CCCCC5)CC[C@]4(C)[C@H]3CC[C@]12C (stereo partly specified)	> 50	–
C/C=C1/CC[C@H]2[C@@H]3CCC4C[C@H](N5CCCCC5)CC[C@]4(C)[C@H]3CC[C@]12C (stereo partly specified)	2.48	–
C/C=C1/[C@H](O)C[C@H]2[C@@H]3CCC4C[C@@H](N)CC[C@]4(C)[C@H]3CC[C@]12C (stereo partly specified)	–	IC50 ([1]; mda-mb-231): Nd(Toxic)
C/C=C1/[C@H](O)C[C@H]2[C@@H]3CCC4C[C@@H](NC)CC[C@]4(C)[C@H]3CC[C@]12C (stereo partly specified)	4.77	–
C/C=C1/CC[C@H]2[C@@H]3CCC4C[C@H](NCc5ccc(C#N)cc5)CC[C@]4(C)[C@H]3CC[C@]12C (stereo partly specified)	> 50	–
C/C=C1/CC[C@H]2[C@@H]3CCC4C[C@@H](N5CCCC5)CC[C@]4(C)[C@H]3CC[C@]12C (stereo partly specified)	4.36	–
C/C=C1/C(=O)C[C@H]2[C@@H]3CCC4C[C@@H](N5CCCCC5)CC[C@]4(C)[C@H]3CC[C@]12C (stereo partly specified)	> 50	–
C/C=C1/[C@H](O)C[C@H]2[C@@H]3CCC4C[C@H](NCC)CC[C@]4(C)[C@H]3CC[C@]12C (stereo partly specified)	32.8	–
C/C=C1/[C@H](O)C[C@H]2[C@@H]3CCC4C[C@@H](N(C)C)CC[C@]4(C)[C@H]3CC[C@]12C (stereo partly specified)	–	IC50 ([1]; mda-mb-231): Nd(Toxic)
C/C=C1/CC[C@H]2[C@@H]3CCC4C[C@H](N5CCCC5)CC[C@]4(C)[C@H]3CC[C@]12C (stereo partly specified)	24.2	–
C/C=C1/[C@H](O)C[C@H]2[C@@H]3CCC4C[C@@H](NCC)CC[C@]4(C)[C@H]3CC[C@]12C (stereo partly specified)	–	IC50 ([1]; mda-mb-231): Nd(Toxic)
CC=C1CC[C@H]2[C@@H]3CCC4C[C@@H](NC)CC[C@]4(C)[C@H]3CC[C@]12C (stereo partly specified)	1.21	–
C[C@@H]1CC[C@@]2(NC1)O[C@H]1C[C@H]3[C@@H]4CC=C5C[C@@H](O[C@@H]6O[C@H](CO)[C@@H](O[C@@H]7O[C@@H](C)[C@H](O)[C@@H](O)[C@H]7O)[C@H](O)[C@H]6O[C@@H]6O[C@@H](C)[C@H](O)[C@@H](O)[C@H]6O)CC[C@]5(C)[C@H]4CC[C@]3(C)[C@H]1[C@@H]2C [SOLAMARGINE]	–	Activity [12]: 40%; Activity [13]: 40%
C/C=C1/C(=O)C[C@H]2[C@@H]3CCC4C[C@@H](NC)CC[C@]4(C)[C@H]3CC[C@]12C (stereo partly specified)	18.9	–
C/C=C1/C(=O)C[C@H]2[C@@H]3CCC4C[C@H](NCC)CC[C@]4(C)[C@H]3CC[C@]12C (stereo partly specified)	–	IC50 ([1]; mda-mb-231): Nd(Toxic)
C/C=C1/[C@H](O)C[C@H]2[C@@H]3CCC4C[C@H](N5CCCCC5)CC[C@]4(C)[C@H]3CC[C@]12C (stereo partly specified)	0.85	–
C/C=C1/CC[C@H]2[C@@H]3CCC4C[C@@H](NCC)CC[C@]4(C)[C@H]3CC[C@]12C (stereo partly specified)	0.17	–
C/C=C1/[C@H](O)C[C@H]2[C@@H]3CCC4C[C@@H](N5CCCC5)CC[C@]4(C)[C@H]3CC[C@]12C (stereo partly specified)	–	IC50 ([1]; mda-mb-231): Nd(Toxic)
C/C=C1/C(=O)C[C@H]2[C@@H]3CCC4C[C@H](N5CCCC5)CC[C@]4(C)[C@H]3CC[C@]12C (stereo partly specified)	> 50	–
C/C=C1/CC[C@H]2[C@@H]3CCC4C[C@H](N)CC[C@]4(C)[C@H]3CC[C@]12C (stereo partly specified)	2.21	–
C/C=C1/CC[C@H]2[C@@H]3CCC4C[C@@H](NCc5ccc(C#N)cc5)CC[C@]4(C)[C@H]3CC[C@]12C (stereo partly specified)	26.7	–
C/C=C1/C(=O)C[C@H]2[C@@H]3CCC4C[C@@H](NCC)CC[C@]4(C)[C@H]3CC[C@]12C (stereo partly specified)	28.5	–
C/C=C1/[C@H](O)C[C@H]2[C@@H]3CCC4C[C@H](N(C)C)CC[C@]4(C)[C@H]3CC[C@]12C (stereo partly specified)	> 50	–
